Each structure is given as a SMILES string. Bounds are passed on as bounds.

The test system of assay [1] is HBV replication in HepG2-2.2.15 cells. The experiment in a line: Dot-blot assay of HBV replication. It counts as cell-based. The conditions noted are these: Hepatitis B virus, 144 h. As to the method:
Compounds active in the HBV assembly assay are tested for their activity and toxicity in cellular assay. In the first anti-viral assay, the ability of compounds to inhibit HBV replication in an HBV-producing hepatoma cell line using the dot-blot method is evaluated.
Briefly, confluent monolayers of HepG2-2.2.15 cells are incubated with complete medium containing various concentrations of a test compound. Three days later, the culture medium is replaced with fresh medium containing the appropriately diluted test compound. Six days following the initial administration of the test compound, the cell culture supernatant is collected, and cell lysis is performed. The samples are applied onto Nylos membranes and DNA is immobilized to the membrane by UV cross-linking. After pre-hybridization, the HBV probe is added and the hybridization is performed overnight. The membranes are exposed to the Kodak films; antiviral activity is calculated from the reduction in HBV DNA levels (EC50). The EC50 for antiviral activity is calculated from the dose response curves of active compounds.
In the first anti-viral assay, the ability of compounds to inhibit HBV replication in an HBV-producing hepatoma cell line using the dot-blot method was evaluated.
Confluent monolayers of HepG2-2.2.15 cells were incubated with complete medium containing various concentrations of a test compound. Three days later, the culture medium was replaced with fresh medium containing the appropriately diluted test compound. Six days following the initial administration of the test compound, the cell culture supernatant was collected, and cell lysis was performed. The samples were applied onto Nylos membranes and DNA was immobilized to the membrane by UV cross-linking. After pre-hybridization, the HBV probe was added and the hybridization was performed overnight. The membranes were exposed to the Kodak films; antiviral activity was calculated from the reduction in HBV DNA levels (EC50). The EC50 for antiviral activity was calculated from the dose response curves of active compounds. […]

Assay [2] has as its target HBV C150Bo capsid protein (HBV CA protein) (Hepatitis B virus genotype D subtype adw, UniProt P03147, C107A/C48A/C61A/R150C). Nature of the assay: HBV assembly assay (fluorescence quenching in vitro assembly). It counts as biochemical. The conditions noted are these: at 10 μM.

Chain of HBV C150Bo capsid protein (HBV CA protein) (P03147 1-150 C48A/C61A/C107A/R150C): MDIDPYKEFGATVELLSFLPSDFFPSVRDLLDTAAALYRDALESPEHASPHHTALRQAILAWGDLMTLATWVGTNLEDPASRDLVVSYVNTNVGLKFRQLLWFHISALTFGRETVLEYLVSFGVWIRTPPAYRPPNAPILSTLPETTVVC

As usually defined, the inhibition is the change of the read-out against control, counted positive when it falls. Lower therefore signals a response near the control. Regarding `O=C(Nc1ccc(F)c(Cl)c1)c1cccc(S(=O)(=O)N2CCC(CO)(Cc3ccccc3)CC2)c1` [compound 553], the inhibition at 10 µM in assay [1] was above 50%. Further, the “Activity in HBV assembly assay” value in assay [2] was “+ (‘+’ indicates >50% activity at 10 μM)”.
For `O=C(Nc1cc(F)c(F)c(Cl)c1)c1cccc(S(=O)(=O)N2CCC(O)CC2)c1` [compound 595] the same measures were above 50% and “+ (‘+’ indicates >50% activity at 10 μM)”.
In the case of `O=C(Nc1ccc(F)c(CF)c1)c1cccc(S(=O)(=O)N2CC(O)C2)c1` [compound 646], the inhibition at 10 µM in assay [1] was above 50%. Further, the “Activity in HBV assembly assay” value in assay [2] is “+ (‘+’ indicates >50% activity at 10 μM)”.
With `O=C(Nc1ccc(F)c(Br)c1)c1cccc(S(=O)(=O)N2CCC(O)(CO)CC2)c1` [compound 758], the inhibition at 10 µM in assay [1] is above 50%. Besides, the “Activity in HBV assembly assay” value in assay [2] was “+ (‘+’ indicates >50% activity at 10 μM)”.
The molecule `O=C(Nc1cc(F)c(F)c(F)c1)c1cccc(S(=O)(=O)N2CCC(O)(c3ccc(F)cc3)CC2)c1` [compound 765] yielded an inhibition at 10 µM in assay [1] above 50%. For the same molecule, the “Activity in HBV assembly assay” value in assay [2] is given as “+ (‘+’ indicates >50% activity at 10 μM)”.
The matching figures for `O=C(Nc1ccc(F)c(Cl)c1)c1cccc(S(=O)(=O)N2CCC(O)(c3cccc(F)c3F)CC2)c1` [compound 775]: above 50% and “+ (‘+’ indicates >50% activity at 10 μM)”.
As for `O=C(Nc1cc(F)c(F)c(CF)c1)c1cccc(S(=O)(=O)N2CC(O)C2)c1` [compound 803], in assay [1], the inhibition at 10 µM is above 50%. The “Activity in HBV assembly assay” value in assay [2] is “+ (‘+’ indicates >50% activity at 10 μM)”.
On to `O=C(Nc1ccc(F)c(Br)c1)c1cccc(S(=O)(=O)N2CC(O)C(F)C2)c1` (stereo not shown) [compound 826], for which, in assay [1], the inhibition at 10 µM was above 50%. Moreover, the “Activity in HBV assembly assay” value in assay [2] was “+ (‘+’ indicates >50% activity at 10 μM)”.
With `O=C(Nc1ccc(F)c(Br)c1)c1cccc(S(=O)(=O)NC2CCCC2O)c1` (stereo not shown) [compound 843], the inhibition at 10 µM in assay [1] was above 50%. Besides, the “Activity in HBV assembly assay” value in assay [2] is recorded as “+ (‘+’ indicates >50% activity at 10 μM)”.
In assay [1], `O=C(Nc1ccc(F)c(Cl)c1)c1cc(S(=O)(=O)N2CCC(O)CC2)ccc1F` [compound 885] yielded an inhibition at 10 µM above 50%. For the same molecule, the “Activity in HBV assembly assay” value in assay [2] is reported as “+ (‘+’ indicates >50% activity at 10 μM)”.
For `O=C(Nc1cc(F)c(F)c(F)c1)c1ccc(F)c(S(=O)(=O)N2CCC(O)CC2)c1` [compound 890] the same measures were above 50% and “+ (‘+’ indicates >50% activity at 10 μM)”.
In turn, `O=C(Nc1cc(F)c(F)c(F)c1)c1ccc(F)c(S(=O)(=O)N2CCC(CCO)CC2)c1` [compound 900] had an inhibition at 10 µM in assay [1] above 50%. Moreover, the “Activity in HBV assembly assay” value in assay [2] was “+ (‘+’ indicates >50% activity at 10 μM)”.
In turn, `O=C(Nc1cc(F)c(F)c(F)c1)c1ccc(F)c(S(=O)(=O)N2CC(O)C2)c1` [compound 901] came in with an inhibition at 10 µM in assay [1] above 50%. Also, the “Activity in HBV assembly assay” value in assay [2] is reported as “+ (‘+’ indicates >50% activity at 10 μM)”.
In assay [1], `O=C(Nc1cc(F)c(F)c(F)c1)c1ccc(F)c(S(=O)(=O)N2CCC(O)C2)c1` (stereo not shown) [compound 903] came in with an inhibition at 10 µM above 50%. Besides, in assay [2], the “Activity in HBV assembly assay” value is reported as “+ (‘+’ indicates >50% activity at 10 μM)”.
As to `O=C(Nc1ccc(F)c(Cl)c1)c1ccc(F)c(S(=O)(=O)N2CCC(CCO)CC2)c1` [compound 914], the inhibition at 10 µM in assay [1] is above 50%. Besides, in assay [2], the “Activity in HBV assembly assay” value is on record as “+ (‘+’ indicates >50% activity at 10 μM)”.
In the case of `O=C(Nc1cc(F)c(F)c(F)c1)c1ccc(F)c(S(=O)(=O)N2CCC(O)(CO)CC2)c1` [compound 916], the inhibition at 10 µM in assay [1] was above 50%. Further, the “Activity in HBV assembly assay” value in assay [2] is “+ (‘+’ indicates >50% activity at 10 μM)”.
The matching figures for `COC(=O)c1ccc(C(=O)Nc2cc(F)c(F)c(F)c2)cc1S(=O)(=O)N1CCC(O)CC1` [compound 927]: above 50% and “+ (‘+’ indicates >50% activity at 10 μM)”.
As for `Cc1ccc(S(=O)(=O)N2CCC(O)CC2)cc1C(=O)Nc1cc(F)c(F)c(F)c1` [compound 928], the inhibition at 10 µM in assay [1] was above 50%. For the same molecule, the “Activity in HBV assembly assay” value in assay [2] was “+ (‘+’ indicates >50% activity at 10 μM)”.
In turn, `O=C(Nc1cc(F)c(F)c(Cl)c1)c1cccc(S(=O)(=O)N2CC(O)C2)c1` [compound 935] showed an inhibition at 10 µM in assay [1] above 50%. For the same molecule, the “Activity in HBV assembly assay” value in assay [2] is “+ (‘+’ indicates >50% activity at 10 μM)”.
`O=C(Nc1ccc(F)c(Cl)c1)c1ccc(F)c(S(=O)(=O)N2CC(O)C2)c1` [compound 953] registered an inhibition at 10 µM in assay [1] above 50%. Besides, the “Activity in HBV assembly assay” value in assay [2] was “+ (‘+’ indicates >50% activity at 10 μM)”.
Molecule `O=C(Nc1ccc(F)c(Cl)c1)c1ccc(F)c(S(=O)(=O)NC2CCC(O)C2)c1` (stereo not shown) [compound 958] showed an inhibition at 10 µM in assay [1] above 50%. Further, the “Activity in HBV assembly assay” value in assay [2] is reported as “+ (‘+’ indicates >50% activity at 10 μM)”.
For `O=C(Nc1ccc(F)c(Br)c1)c1ccc(F)c(S(=O)(=O)NC2CCC(O)C2)c1` (stereo not shown) [compound 959] the same measures were above 50% and “+ (‘+’ indicates >50% activity at 10 μM)”.
In assay [1], `O=C(Nc1ccc(F)c(Cl)c1)c1ccc(Cl)c(S(=O)(=O)NC2CC(O)C2)c1` (stereo not shown) [compound 1042] returned an inhibition at 10 µM above 50%. Also, the “Activity in HBV assembly assay” value in assay [2] was “+ (‘+’ indicates >50% activity at 10 μM)”.
Molecule `O=C(Nc1cc(F)c(F)c(F)c1)c1ccc(Cl)c(S(=O)(=O)N2CCC(O)CC2)c1` [compound 1057] had an inhibition at 10 µM in assay [1] above 50%. The “Activity in HBV assembly assay” value in assay [2] is “+ (‘+’ indicates >50% activity at 10 μM)”.
In the case of `O=C(Nc1ccc(F)c(Br)c1)c1ccc(Cl)c(S(=O)(=O)N2CCC(CCO)CC2)c1` [compound 1087], the inhibition at 10 µM in assay [1] is above 50%. In assay [2], the “Activity in HBV assembly assay” value is recorded as “+ (‘+’ indicates >50% activity at 10 μM)”.
In assay [1], `O=C(Nc1ccc(F)c(Br)c1)c1ccc(Cl)c(S(=O)(=O)N2CCC(O)(CO)CC2)c1` [compound 1099] showed an inhibition at 10 µM above 50%. For the same molecule, the “Activity in HBV assembly assay” value in assay [2] is listed as “+ (‘+’ indicates >50% activity at 10 μM)”.
`O=C(Nc1cc(F)c(F)c(F)c1)c1cc(S(=O)(=O)NC2CCCC2O)ccc1Cl` (stereo not shown) [compound 1113]: the inhibition at 10 µM in assay [1] is above 50%. In addition, in assay [2], the “Activity in HBV assembly assay” value is “+ (‘+’ indicates >50% activity at 10 μM)”.
With `O=C(Nc1ccc(F)c(Cl)c1)c1cc(S(=O)(=O)NC2CCCC2O)ccc1Cl` (stereo not shown) [compound 1114], the inhibition at 10 µM in assay [1] was above 50%. Moreover, the “Activity in HBV assembly assay” value in assay [2] was “+ (‘+’ indicates >50% activity at 10 μM)”.
In assay [1], `O=C(Nc1cc(F)c(F)c(F)c1)c1cc(S(=O)(=O)NC2CCCCC2O)ccc1Cl` (stereo not shown) [compound 1129] came in with an inhibition at 10 µM above 50%. For the same molecule, the “Activity in HBV assembly assay” value in assay [2] is given as “+ (‘+’ indicates >50% activity at 10 μM)”.
As for `O=C(Nc1cc(F)c(F)c(F)c1)c1ccc(Cl)c(S(=O)(=O)N2CCC(O)(CO)CC2)c1` [compound 1130], the inhibition at 10 µM in assay [1] was above 50%. Moreover, the “Activity in HBV assembly assay” value in assay [2] is “+ (‘+’ indicates >50% activity at 10 μM)”.
As for `O=C(Nc1cc(F)c(F)c(F)c1)c1cc(S(=O)(=O)N2CCC(O)CC2)ccc1Cl` [compound 1149], in assay [1], the inhibition at 10 µM was above 50%. For the same molecule, the “Activity in HBV assembly assay” value in assay [2] is reported as “+ (‘+’ indicates >50% activity at 10 μM)”.
Turning to `O=C(Nc1cc(F)c(F)c(F)c1)c1cc(S(=O)(=O)N2CC(O)C2)ccc1Cl` [compound 1153], the inhibition at 10 µM in assay [1] was above 50%. Also, the “Activity in HBV assembly assay” value in assay [2] is “+ (‘+’ indicates >50% activity at 10 μM)”.
For `O=C(Nc1ccc(F)c(Cl)c1)c1cccc(S(=O)(=O)NC2CCC(O)C2)c1` (stereo not shown) [compound 1157], the inhibition at 10 µM in assay [1] was above 50%. Besides, the “Activity in HBV assembly assay” value in assay [2] is listed as “+ (‘+’ indicates >50% activity at 10 μM)”.
For `CC1(O)CCN(S(=O)(=O)c2cc(C(=O)Nc3cc(F)c(F)c(F)c3)ccc2F)CC1` [compound 1161] the same measures were above 50% and “+ (‘+’ indicates >50% activity at 10 μM)”.
Consider `O=C(Nc1cc(F)c(F)c(F)c1)c1cc(S(=O)(=O)N2CCC(O)(CO)CC2)ccc1Cl` [compound 1189], for which, in assay [1], the inhibition at 10 µM was above 50%. The “Activity in HBV assembly assay” value in assay [2] is on record as “+ (‘+’ indicates >50% activity at 10 μM)”.
In assay [1], `O=C(Nc1cc(F)c(F)c(F)c1)c1ccc(F)c(S(=O)(=O)N2CCC(O)C(CF)C2)c1` (stereo not shown) [compound 1283] returned an inhibition at 10 µM above 50%. For the same molecule, in assay [2], the “Activity in HBV assembly assay” value is given as “+ (‘+’ indicates >50% activity at 10 μM)”.
`O=C(Nc1ccc(F)c(F)c1)c1cc(S(=O)(=O)N2CCC(O)CC2)c(F)cc1Cl` [compound 1338]: in assay [1], the inhibition at 10 µM was above 50%. In addition, the “Activity in HBV assembly assay” value in assay [2] is listed as “+ (‘+’ indicates >50% activity at 10 μM)”.
For `O=C(Nc1cc(F)c(F)c(F)c1)c1cc(S(=O)(=O)N2CC(O)C2)c(F)cc1Cl` [compound 1339] the same measures were above 50% and “+ (‘+’ indicates >50% activity at 10 μM)”.

The values above are taken from US9751857B2, “Hepatitis B antiviral agents” (NOVIRA THERAPEUTICS, INC., priority 2011, dated 2017).
